Experimental findings from PubChem BioAssay (NCI) are described below.

Some test systems named below: OVCAR-5 ovarian; U251 CNS; OVCAR-8 ovarian; OVCAR-3 ovarian; SNB-19 CNS; NCI-H522 lung; NCI-H226 lung; MDA-MB-231 breast; SK-MEL-28 melanoma; MALME-3M melanoma.
Common to all, as to assay: growth of human tumour cells (NCI), 48 h

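Cultured in 96-well plates, cells were exposed to test compound for 48 hours across five concentrations. The concentration for 50% growth inhibition is given as GI50. TGI denotes the concentration required for complete inhibition of growth.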

In the case of `C=C(Cn1c2ccccc2c(=O)c2ccccc21)c1ccc(C(=O)Nc2ccccc2N)cc1`, the GI50 with OVCAR-5 ovarian is greater than 100 µM; with U251 CNS it was 8.1 µM; in the assay on OVCAR-8 ovarian, greater than 100 µM; in the assay with OVCAR-3 ovarian, 6.5 µM; in the assay with NCI-H522 lung, 2.72 µM; with NCI-H226 lung it was greater than 24.8 µM. For the same compound, the GI50 in the assay on MDA-MB-231 breast is 3.72 µM; in the assay on SK-MEL-28 melanoma, greater than 100 µM; with MALME-3M melanoma it was 6.45 µM. The TGI with OVCAR-5 ovarian, with U251 CNS, in the assay with OVCAR-8 ovarian, in the assay with OVCAR-3 ovarian, with SNB-19 CNS and with NCI-H522 lung was greater than 100 µM throughout. Besides, the TGI was greater than 100 µM with NCI-H226 lung, 56 µM in the assay with MDA-MB-231 breast, greater than 100 µM in the assay on SK-MEL-28 melanoma and greater than 100 µM in the assay on MALME-3M melanoma.

In the case of `Oc1ccccc1C=Nc1nc(OCc2ccccc2)nc2[nH]ncc12`, the GI50 with OVCAR-5 ovarian was 27.2 µM; in the assay on U251 CNS, 22.4 µM; with OVCAR-8 ovarian it was 44.3 µM; in the assay on OVCAR-3 ovarian, 17.8 µM; with SNB-19 CNS, 37.7 µM; in the assay with NCI-H522 lung it was 26.3 µM. Besides, the GI50 was 16.5 µM with NCI-H226 lung, 15 µM with MDA-MB-231 breast, 22.2 µM with SK-MEL-28 melanoma and 16.6 µM in the assay with MALME-3M melanoma. Moreover, the TGI is 83.9 µM in the assay on OVCAR-5 ovarian; 62 µM in the assay with U251 CNS; greater than 100 µM in the assay on OVCAR-8 ovarian; 49.1 µM with OVCAR-3 ovarian; greater than 100 µM in the assay with SNB-19 CNS; greater than 100 µM in the assay on NCI-H522 lung. Moreover, the TGI was 40.6 µM in the assay on NCI-H226 lung, 37.3 µM in the assay on MDA-MB-231 breast, 43.1 µM in the assay on SK-MEL-28 melanoma and 38.2 µM with MALME-3M melanoma.

Turning to `COC(=O)[C@H](Cc1cn(C)cn1)NC(=O)[C@@H](NC(=O)Nc1cc(C(F)(F)F)cc(C(F)(F)F)c1)C(C)C`, the GI50 in the assay with OVCAR-5 ovarian is greater than 10 µM; with U251 CNS, greater than 10 µM; with OVCAR-8 ovarian, 2.16 µM; with OVCAR-3 ovarian, 1.86 µM; with SNB-19 CNS, 6.71 µM; in the assay with NCI-H522 lung it was 1.71 µM. Further, the GI50 with NCI-H226 lung was greater than 10 µM; in the assay with MDA-MB-231 breast, 1.71 µM; in the assay on SK-MEL-28 melanoma it was 2.05 µM; in the assay on MALME-3M melanoma, greater than 10 µM. For the same compound, the TGI in the assay on OVCAR-5 ovarian was greater than 10 µM; with U251 CNS, greater than 10 µM; in the assay with OVCAR-8 ovarian, 5.22 µM; with OVCAR-3 ovarian, 3.48 µM; in the assay with SNB-19 CNS it was greater than 10 µM; with NCI-H522 lung, 3.66 µM. Moreover, the TGI in the assay on NCI-H226 lung is greater than 10 µM; in the assay with MDA-MB-231 breast, 4.42 µM; in the assay with SK-MEL-28 melanoma, 4.99 µM; in the assay with MALME-3M melanoma, greater than 10 µM.

As for `COc1ccc(Cc2nc3cc(OC)c(OC)cc3c(=O)[nH]2)cc1`, the GI50 with OVCAR-5 ovarian was 3.74 µM; in the assay on U251 CNS, 10.5 µM; in the assay on OVCAR-8 ovarian, 13 µM; in the assay with OVCAR-3 ovarian, 12.5 µM; in the assay on SNB-19 CNS, 7.23 µM; in the assay on NCI-H522 lung, 14.5 µM. Further, the GI50 in the assay with NCI-H226 lung is 9.2 µM; in the assay on MDA-MB-231 breast, 9.83 µM; with SK-MEL-28 melanoma, 11.5 µM; in the assay with MALME-3M melanoma, 9.53 µM. In addition, the TGI was greater than 74.1 µM in the assay on OVCAR-5 ovarian; greater than 100 µM in the assay on U251 CNS; greater than 100 µM in the assay on OVCAR-8 ovarian; greater than 66.1 µM in the assay on OVCAR-3 ovarian; greater than 100 µM in the assay with SNB-19 CNS; greater than 100 µM in the assay with NCI-H522 lung. In addition, the TGI with NCI-H226 lung was greater than 100 µM; in the assay on MDA-MB-231 breast, greater than 100 µM; in the assay on SK-MEL-28 melanoma, 65.1 µM; with MALME-3M melanoma, 30.3 µM.

With `Nc1ncnc2c1nc(Cl)n2C1OC(CO)C(O)C1O` (centres undefined), the TGI with OVCAR-5 ovarian is 98.6 µM; with U251 CNS, greater than 100 µM; with OVCAR-8 ovarian, greater than 100 µM; in the assay on OVCAR-3 ovarian it was greater than 100 µM; in the assay on SNB-19 CNS, greater than 100 µM; in the assay with NCI-H522 lung, greater than 95.3 µM. For the same compound, the TGI in the assay with NCI-H226 lung is greater than 85.2 µM; with MDA-MB-231 breast, greater than 100 µM; in the assay on SK-MEL-28 melanoma, greater than 100 µM; in the assay on MALME-3M melanoma, greater than 100 µM.

Turning to `CCSc1ncc(Br)c(Sc2nc(N)nc3nc[nH]c23)n1`, the GI50 was 5.83 µM in the assay on OVCAR-5 ovarian; 18.1 µM with U251 CNS; 4.54 µM in the assay with OVCAR-8 ovarian; 2.55 µM with OVCAR-3 ovarian; greater than 100 µM in the assay with SNB-19 CNS; 3.18 µM in the assay on NCI-H522 lung. Besides, the GI50 is 2.59 µM in the assay with NCI-H226 lung, 2.8 µM in the assay with MDA-MB-231 breast, 46.9 µM in the assay on SK-MEL-28 melanoma and 1.25 µM in the assay with MALME-3M melanoma. The TGI was greater than 100 µM with OVCAR-5 ovarian; greater than 100 µM with U251 CNS; greater than 100 µM with OVCAR-8 ovarian; 25 µM in the assay on OVCAR-3 ovarian; greater than 100 µM with SNB-19 CNS; 64.9 µM in the assay with NCI-H522 lung. The TGI with NCI-H226 lung is greater than 100 µM; in the assay on MDA-MB-231 breast, greater than 100 µM; in the assay on SK-MEL-28 melanoma it was greater than 100 µM; in the assay on MALME-3M melanoma it was 34.3 µM.

For the compound `COc1ccc(/C(C)=C(\c2ccc(Cl)cc2)c2ccc(OCCN3CCCCCC3)cc2)cc1F`, the GI50 is 2.95 µM in the assay with OVCAR-5 ovarian; 2.79 µM with U251 CNS; 5.09 µM with OVCAR-8 ovarian; 2.98 µM in the assay on OVCAR-3 ovarian; 5.13 µM with SNB-19 CNS; 3.92 µM in the assay on NCI-H522 lung. Besides, the GI50 in the assay with NCI-H226 lung is 5.47 µM; in the assay with MDA-MB-231 breast, 3.29 µM; in the assay on SK-MEL-28 melanoma, 2.54 µM; in the assay on MALME-3M melanoma, 2.25 µM. In addition, the TGI with OVCAR-5 ovarian was 8.18 µM; in the assay with U251 CNS, 7.59 µM; in the assay with OVCAR-8 ovarian, greater than 16.7 µM; in the assay on OVCAR-3 ovarian, 5.89 µM; in the assay with SNB-19 CNS it was greater than 16.7 µM; in the assay with NCI-H522 lung, 9.71 µM. Further, the TGI in the assay on NCI-H226 lung is greater than 16.7 µM; in the assay with MDA-MB-231 breast, 6.11 µM; in the assay with SK-MEL-28 melanoma, 4.9 µM; in the assay with MALME-3M melanoma, 4.72 µM.
